25 molecules from patent US9926319B2, “Pyridyl piperidines” (MERCK PATENT GMBH, priority 2014, dated 2018) can be followed below.

One may read the microsomal CLint as the capacity of the preparation to metabolise the compound, expressed as a volume cleared per time. By IC50 is commonly meant the concentration that inhibits the measured activity by half.

A short description of data set [1]: CLint (intrinsic clearance) assay, microsomal incubation. It counts as in vitro ADME, Human. Conditions: NADPH, 37° C., up to 30 min; for microsomal CLint at 0.8 μM: human, liver microsomes, pH 7.4, human liver microsomes 0.5 mg/mL protein; for Human Clint: human liver microsomes 0.5 mg/mL protein. A digest of the protocol: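 Test compound at 0.8 μM was incubated at 37 °C with liver microsomes at 0.5 mg/mL protein in 0.1 M potassium phosphate pH 7.4 with 1 mM MgCl2, NADPH-started, with no-cofactor controls. Acetonitrile quench at 0, 5, 10, 20 and 30 min, then LC-MS/MS peak-area decline. CLint (μL/min/mg protein) = k·1000/protein concentration.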
On the technique in general: Liver microsomes are a subcellular fraction often used to study metabolism.

Another data set deals with Wnt pathway. Put plainly: Cellular assay for Wnt pathway activity (luciferase reporter cell based assay). Particulars: 24 h, HEK293 luciferase reporter cell line (ER-DSH, TCF dependent promoter), induced with estrogen (1 μM), read-out: 7df3 IC50. In general terms: In a reporter assay the amount or activity of a reporter protein is the signal.

Regarding `Cn1cc(-c2ccc(-c3cncc(Cl)c3N3CCC4(CC3)NCCNC4=O)cc2)cn1` [Example 71, 9-{3-Chloro-5-[4-(1-methyl-1H-pyrazol-4-yl)-phenyl]-pyridin-4-yl}-1,4,9-triaza-spiro[5.5]undecan-5-one], the microsomal CLint at 0.8 μM in data set [1] came to 49 µL/min/mg. Moreover, the IC50 in the data set with Wnt pathway is 12 nM.
The matching figures for `O=C1NCCNC12CCN(c1c(Cl)cncc1-c1ccc3oc(=O)[nH]c3c1)CC2` [Example 72, 9-[3-Chloro-5-(2-oxo-2,3-dihydro-benzooxazol-5-yl)-pyridin-4-yl]-1,4,9-triaza-spiro[5.5]undecan-5-one]: under 10 µL/min/mg and 35 nM.
With `CN1C(=O)Cc2ccc(-c3cncc(Cl)c3N3CCC(N)(C(N)=O)CC3)cc21` [Example 73, 4-Amino-5′-chloro-3′-(1-methyl-2-oxo-2,3-dihydro-1H-indol-6-yl)-3,4,5,6-tetrahydro-2H-[1,4′]bipyridinyl-4-carboxylic acid amide], the microsomal CLint at 0.8 μM in data set [1] amounted to 17 µL/min/mg. Moreover, the IC50 in the data set with Wnt pathway came out at 12 nM.
`CN1C(=O)Cc2ccc(-c3cncc(Cl)c3N3CCC4(CC3)NCNC4=O)cc21` [Example 74, 8-[3-Chloro-5-(1-methyl-2-oxo-2,3-dihydro-1H-indol-6-yl)-pyridin-4-yl]-1,3,8-triaza-spiro[4.5]decan-4-one]: the microsomal CLint at 0.8 μM in data set [1] is 20 µL/min/mg. The IC50 with Wnt pathway stood at 20 nM.
With `CN1c2ccc(-c3cncc(Cl)c3N3CCC4(CC3)NCNC4=O)cc2CS1(=O)=O` [Example 75, 8-[3-Chloro-5-(1-methyl-2,2-dioxo-2,3-dihydro-1H-2l6-benzo[c]isothiazol-5-yl)-pyridin-4-yl]-1,3,8-triaza-spiro[4.5]decan-4-one], in data set [1], the microsomal CLint at 0.8 μM turned out to be 20 µL/min/mg. In the data set on Wnt pathway, the concentration for half-maximal inhibition (IC50) came out at 4.7 nM.
Take `CN1c2ccc(-c3cncc(F)c3N3CCC4(CCNC4=O)CC3)cc2CS1(=O)=O` [Example 76, 8-[3-Fluoro-5-(1-methyl-2,2-dioxo-2,3-dihydro-1H-2l6-benzo[c]isothiazol-5-yl)-pyridin-4-yl]-2,8-diaza-spiro[4.5]decan-1-one]: in data set [1], the “Human Clint” value is 36 µL/min/mg. In addition, the IC50 in the data set on Wnt pathway stood at 9.1 nM.
For the molecule `COCC1(C(N)=O)CCN(c2c(Cl)cncc2-c2ccc3c(c2)CS(=O)(=O)N3C)CC1` [Example 77, 5′-Chloro-4-methoxymethyl-3′-(1-methyl-2,2-dioxo-2,3-dihydro-1H-2l6-benzo[c]isothiazol-5-yl)-3,4,5,6-tetrahydro-2H-[1,4′]bipyridinyl-4-carboxylic acid amide], in data set [1], the microsomal CLint at 0.8 μM is 75 µL/min/mg. Moreover, the IC50 with Wnt pathway is 0.43 nM.
For `CC(C)n1cc(-c2ccc(-c3cncc(Cl)c3N3CCC4(CC3)NCNC4=O)cc2)cn1` [Example 78, 8-{3-Chloro-5-[4-(1-isopropyl-1H-pyrazol-4-yl)-phenyl]-pyridin-4-yl}-1,3,8-triaza-spiro[4.5]decan-4-one], the microsomal CLint at 0.8 μM in data set [1] came out at 30 µL/min/mg. Besides, in the data set with Wnt pathway, the IC50 was found to be 3.8 nM.
Consider `Cn1cc(-c2ccc(-c3cncc(F)c3N3CCC4(CC3)CNC(=O)O4)cc2)cn1` [Example 79, 8-{3-Fluoro-5-[4-(1-methyl-1H-pyrazol-4-yl)-phenyl]-pyridin-4-yl}-1-oxa-3,8-diaza-spiro[4.5]decan-2-one], for which the “Human Clint” value in data set [1] is 24 µL/min/mg. Further, in the data set on Wnt pathway, the IC50 was determined as 43 nM.
Regarding `C#Cc1cncc(-c2ccc3c(c2)CS(=O)(=O)N3C)c1N1CCC2(CCNC2=O)CC1` [Example 81, 8-[3-Ethynyl-5-(1-methyl-2,2-dioxo-2,3-dihydro-1H-2l6-benzo[c]isothiazol-5-yl)-pyridin-4-yl]-2,8-diaza-spiro[4.5]decan-1-one], the microsomal CLint at 0.8 μM in data set [1] came out at 66 µL/min/mg. The IC50 in the data set with Wnt pathway turned out to be 0.66 nM.
The matching figures for `Cn1ncc2cc(-c3cncc(Cl)c3N3CCC4(CC3)NCNC4=O)ccc21` [Example 82, 8-[3-Chloro-5-(1-methyl-1H-indazol-5-yl)-pyridin-4-yl]-1,3,8-triaza-spiro[4.5]decan-4-one]: 47 µL/min/mg and 7.3 nM.
Take `Cn1ncc2cc(-c3cncc(Cl)c3N3CCC(N)(C(N)=O)CC3)ccc21` [Example 83, 4-Amino-5′-chloro-3′-(1-methyl-1H-indazol-5-yl)-3,4,5,6-tetrahydro-2H-[1,4′]bipyridinyl-4-carboxylic acid amide]: the microsomal CLint at 0.8 μM in data set [1] amounted to 37 µL/min/mg. In addition, in the data set with Wnt pathway, the IC50 turned out to be 7.1 nM.
As to `O=C1CC2(CCN(c3c(Cl)cncc3-c3ccc4c(c3)CS(=O)(=O)N4)CC2)C(=O)N1` [Example 84, 8-[3-Chloro-5-(2,2-dioxo-2,3-dihydro-1H-2l6-benzo[c]isothiazol-5-yl)-pyridin-4-yl]-2,8-diaza-spiro[4.5]decane-1,3-dione], in data set [1], the microsomal CLint at 0.8 μM is under 10 µL/min/mg. The IC50 in the data set with Wnt pathway was 15 nM.
Turning to `CN1c2ccc(-c3cncc(Cl)c3N3CCC(C#N)(CO)CC3)cc2CS1(=O)=O` [Example 85, 5′-Chloro-4-hydroxymethyl-3′-(1-methyl-2,2-dioxo-2,3-dihydro-1H-2l6-benzo[c]isothiazol-5-yl)-3,4,5,6-tetrahydro-2H-[1,4′]bipyridinyl-4-carbonitrile], the microsomal CLint at 0.8 μM in data set [1] was determined as 51 µL/min/mg. Also, the IC50 with Wnt pathway is 0.7 nM.
Consider `CN1c2ccc(-c3cncc(Cl)c3N3CCC4(CC3)CC(=O)NC4=O)cc2CS1(=O)=O` [Example 87, 8-[3-Chloro-5-(1-methyl-2,2-dioxo-2,3-dihydro-1H-2l6-benzo[c]isothiazol-5-yl)-pyridin-4-yl]-2,8-diaza-spiro[4.5]decane-1,3-dione], for which, in data set [1], the microsomal CLint at 0.8 μM turned out to be 13 µL/min/mg. For the same molecule, the IC50 in the data set with Wnt pathway worked out at 0.16 nM.
Turning to `Cn1cc(-c2ccc(-c3cncc(Cl)c3N3CCC4(CC3)NCNC4=O)cc2)cn1` [Example 88, 8-{3-Chloro-5-[4-(1-methyl-1H-pyrazol-4-yl)-phenyl]-pyridin-4-yl}-1,3,8-triaza-spiro[4.5]decan-4-one], in data set [1], the microsomal CLint at 0.8 μM is under 10 µL/min/mg. Also, in the data set with Wnt pathway, the IC50 amounted to 3.2 nM.
Consider `Cn1cc(-c2ccc(-c3cncc(Cl)c3N3CCC4(CCNC4=O)CC3)cc2)cn1` [Example 89, 8-{3-Chloro-5-[4-(1-methyl-1H-pyrazol-4-yl)-phenyl]-pyridin-4-yl}-2,8-diaza-spiro[4.5]decan-1-one], for which the microsomal CLint at 0.8 μM in data set [1] turned out to be 83 µL/min/mg. Also, in the data set with Wnt pathway, the IC50 came out at 6.2 nM.
As for `O=C1CC2(CCN(c3c(Cl)cncc3-c3ccc(N4CCOCC4)cc3)CC2)C(=O)N1` [Example 90, 8-[3-Chloro-5-(4-morpholin-4-yl-phenyl)-pyridin-4-yl]-2,8-diaza-spiro[4.5]decane-1,3-dione], the microsomal CLint at 0.8 μM in data set [1] worked out at 66 µL/min/mg. Besides, in the data set with Wnt pathway, the IC50 turned out to be 8.8 nM.
For `Cn1cc2cc(-c3cncc(Cl)c3N3CCC4(CCNC4=O)CC3)ccc2n1` [Example 92, 8-[3-Chloro-5-(2-methyl-2H-indazol-5-yl)-pyridin-4-yl]-2,8-diaza-spiro[4.5]decan-1-one] the same measures were 33 µL/min/mg and 14 nM.
`O=C1CCc2cc(-c3cncc(Cl)c3N3CCC4(CCNC4=O)CC3)cnc2N1` [Example 93, 6-[5-Chloro-4-(1-oxo-2,8-diaza-spiro[4.5]dec-8-yl)-pyridin-3-yl]-3,4-dihydro-1H-[1,8]naphthyridin-2-one]: the microsomal CLint at 0.8 μM in data set [1] is 48 µL/min/mg. Besides, the IC50 with Wnt pathway came out at 34 nM.
On to `CC(C)n1cc2cc(-c3cncc(Cl)c3N3CCC4(CC3)CNC(=O)O4)ccc2n1` [Example 94, 8-[3-Chloro-5-(2-isopropyl-2H-indazol-5-yl)-pyridin-4-yl]-1-oxa-3,8-diaza-spiro[4.5]decan-2-one], for which the microsomal CLint at 0.8 μM in data set [1] is under 10 µL/min/mg. In the data set on Wnt pathway, the IC50 was 28 nM.
Take `CCn1cc2cc(-c3cncc(Cl)c3N3CCC4(CC3)CNC(=O)O4)ccc2n1` [Example 95, 8-[3-Chloro-5-(2-ethyl-2H-indazol-5-yl)-pyridin-4-yl]-1-oxa-3,8-diaza-spiro[4.5]decan-2-one]: the microsomal CLint at 0.8 μM in data set [1] is under 10 µL/min/mg. In addition, in the data set on Wnt pathway, the IC50 is 4.5 nM.
In the case of `C[C@@H]1NC(=O)OC12CCN(c1c(Cl)cncc1-c1ccc3c(c1)CS(=O)(=O)N3C)CC2` [Example 98, (S)-8-[3-Chloro-5-(1-methyl-2,2-dioxo-2,3-dihydro-1H-2l6-benzo[c]isothiazol-5-yl)-pyridin-4-yl]-4-methyl-1-oxa-3,8-diaza-spiro[4.5]decan-2-one], the microsomal CLint at 0.8 μM in data set [1] worked out at 35 µL/min/mg. For the same molecule, in the data set on Wnt pathway, the IC50 is 4.3 nM.
As for `C[C@H]1NC(=O)OC12CCN(c1c(Cl)cncc1-c1ccc3c(c1)CS(=O)(=O)N3C)CC2` [Example 99, (R)-8-[3-Chloro-5-(1-methyl-2,2-dioxo-2,3-dihydro-1H-2l6-benzo[c]isothiazol-5-yl)-pyridin-4-yl]-4-methyl-1-oxa-3,8-diaza-spiro[4.5]decan-2-one], the microsomal CLint at 0.8 μM in data set [1] amounted to 39 µL/min/mg. In addition, the IC50 in the data set with Wnt pathway was determined as 5.2 nM.
For the molecule `C[C@H]1NC(=O)OC12CCN(c1c(Cl)cncc1-c1ccc(-c3cnn(C)c3)cc1)CC2` [Example 100, (R)-8-{3-Chloro-5-[4-(1-methyl-1H-pyrazol-4-yl)-phenyl]-pyridin-4-yl}-4-methyl-1-oxa-3,8-diaza-spiro[4.5]decan-2-one], the microsomal CLint at 0.8 μM in data set [1] turned out to be 31 µL/min/mg. The IC50 in the data set with Wnt pathway is 37 nM.
